Test results from ChEMBL document CHEMBL3044674, “Design and synthesis of positional isomers of 1-alkyl-2-trifluoromethyl-5 or 6-substituted benzimidazoles and their antimicrobial activity” (2013).
In brackets after ≈: the same amount, converted by molar mass.

How the values were obtained:
Assay type in all cases: functional
Aspergillus niger = test: Antifungal activity against Aspergillus niger MTCC 1344 after 24 hr by paper disk method; settings: MTCC 1344, 24 h
Staphylococcus aureus = test: Antibacterial activity against Staphylococcus aureus NCIM 2079 after 18 to 20 hr by plate method
Escherichia coli = test: Antibacterial activity against Escherichia coli NCIM 2068 after 18 to 20 hr by plate method
Pseudomonas aeruginosa = test: Antibacterial activity against Pseudomonas aeruginosa NCIM 2957 after 18 to 20 hr by plate method
Saccharomyces cerevisiae = test: Antifungal activity against Saccharomyces cerevisiae MTCC 36 after 24 hr by paper disk method; settings: MTCC 36, 24 h
Bacillus subtilis = test: Antibacterial activity against Bacillus subtilis NCIM 2921 after 18 to 20 hr by plate method
Rhizopus arrhizus = test: Antifungal activity against Rhizopus oryzae MTCC 262 after 24 hr by paper disk method; settings: MTCC 262, 24 h
Candida albicans = test: Antifungal activity against Candida albicans MTCC 227 after 24 hr by paper disk method; settings: MTCC 227, 24 h

| SMILES | MIC (Aspergillus niger) [µg/mL] | MIC (Staphylococcus aureus) [µg/mL] | MIC (Escherichia coli) [µg/mL] | MIC (Pseudomonas aeruginosa) [µg/mL] | MIC (Saccharomyces cerevisiae) [µg/mL] | MIC (Bacillus subtilis) [µg/mL] | MIC (Rhizopus arrhizus) [µg/mL] | MIC (Candida albicans) [µg/mL] | Activity (Staphylococcus aureus) | Activity (Escherichia coli) | Activity (Pseudomonas aeruginosa) | Activity (Bacillus subtilis) |
| --- | --- | --- | --- | --- | --- | --- | --- | --- | --- | --- | --- | --- |
| CCOC(=O)Cn1c(C(F)(F)C(F)(F)F)nc2cc(C(=O)c3ccccc3)ccc21 | 1000 (≈ 2350 µM) | 700 (≈ 1640 µM) | 650 (≈ 1520 µM) | 700 (≈ 1640 µM) | 800 (≈ 1880 µM) | 900 (≈ 2110 µM) | 800 (≈ 1880 µM) | 700 (≈ 1640 µM) | Dose-dependent effect | Dose-dependent effect | Dose-dependent effect | Dose-dependent effect |
| CCOC(=O)Cn1c(C(F)(F)F)nc2cc(C(=O)c3ccccc3)ccc21 | 800 (≈ 2130 µM) |  |  |  | 600 (≈ 1590 µM) |  | 450 (≈ 1200 µM) | 500 (≈ 1330 µM) |  |  |  |  |
| CCOC(=O)Cn1c(C(F)(F)F)nc2cc([N+](=O)[O-])ccc21 | 550 (≈ 1730 µM) | 800 (≈ 2520 µM) | 700 (≈ 2210 µM) | 900 (≈ 2840 µM) | 600 (≈ 1890 µM) | 800 (≈ 2520 µM) | 600 (≈ 1890 µM) | 400 (≈ 1260 µM) | Dose-dependent effect | Dose-dependent effect | Dose-dependent effect | Dose-dependent effect |
| C#CCn1c(C(F)(F)F)nc2cc([N+](=O)[O-])ccc21 | 600 (≈ 2230 µM) |  |  |  | 750 (≈ 2790 µM) |  | 700 (≈ 2600 µM) | 700 (≈ 2600 µM) |  |  |  |  |
| CCn1c(C(F)(F)F)nc2cc([N+](=O)[O-])ccc21 | 750 (≈ 2890 µM) |  |  |  | 850 (≈ 3280 µM) |  | 700 (≈ 2700 µM) | 700 (≈ 2700 µM) |  |  |  |  |
| CCn1c(C(F)(F)F)nc2ccc([N+](=O)[O-])cc21 | 800 (≈ 3090 µM) |  |  |  | 800 (≈ 3090 µM) |  | 850 (≈ 3280 µM) | 900 (≈ 3470 µM) |  |  |  |  |
| CCOC(=O)Cn1c(C(F)(F)F)nc2ccc(C(=O)c3ccccc3)cc21 | 700 (≈ 1860 µM) |  |  |  | 500 (≈ 1330 µM) |  | 400 (≈ 1060 µM) | 400 (≈ 1060 µM) |  |  |  |  |
| CCOC(=O)Cn1c(C(F)(F)C(F)(F)F)nc2cc([N+](=O)[O-])ccc21 | 850 (≈ 2310 µM) |  | 900 (≈ 2450 µM) | 800 (≈ 2180 µM) | 900 (≈ 2450 µM) |  | 950 (≈ 2590 µM) | 800 (≈ 2180 µM) | Dose-dependent effect | Dose-dependent effect | Dose-dependent effect | Dose-dependent effect |
| O=[N+]([O-])c1ccc2nc(C(F)(F)F)n(CCCCCl)c2c1 | 650 (≈ 2020 µM) | 800 (≈ 2490 µM) |  |  | 700 (≈ 2180 µM) | 700 (≈ 2180 µM) | 400 (≈ 1240 µM) | 600 (≈ 1870 µM) | Dose-dependent effect | Dose-dependent effect | Dose-dependent effect | Dose-dependent effect |
| CCOC(=O)Cn1c(C(F)(F)C(F)(F)F)nc2ccc(C(=O)c3ccccc3)cc21 | 900 (≈ 2110 µM) | 900 (≈ 2110 µM) | 600 (≈ 1410 µM) | 900 (≈ 2110 µM) | 700 (≈ 1640 µM) | 850 (≈ 1990 µM) | 850 (≈ 1990 µM) | 700 (≈ 1640 µM) | Dose-dependent effect | Dose-dependent effect | Dose-dependent effect | Dose-dependent effect |
| CCOC(=O)Cn1c(C(F)(F)F)nc2ccc([N+](=O)[O-])cc21 | 500 (≈ 1580 µM) | 900 (≈ 2840 µM) | 800 (≈ 2520 µM) | 850 (≈ 2680 µM) | 600 (≈ 1890 µM) | 950 (≈ 2990 µM) | 700 (≈ 2210 µM) | 450 (≈ 1420 µM) | Dose-dependent effect | Dose-dependent effect | Dose-dependent effect | Dose-dependent effect |
| O=[N+]([O-])c1ccc2c(c1)nc(C(F)(F)C(F)(F)F)n2CCCCCl | 650 (≈ 1750 µM) |  |  |  | 750 (≈ 2020 µM) |  | 700 (≈ 1880 µM) | 700 (≈ 1880 µM) |  |  |  |  |
| O=[N+]([O-])c1ccc2c(c1)nc(C(F)(F)F)n2CCCCCl | 450 (≈ 1400 µM) | 800 (≈ 2490 µM) | 600 (≈ 1870 µM) | 800 (≈ 2490 µM) | 800 (≈ 2490 µM) | 750 (≈ 2330 µM) | 500 (≈ 1550 µM) | 500 (≈ 1550 µM) | Dose-dependent effect | Dose-dependent effect | Dose-dependent effect | Dose-dependent effect |

Continued by falling MIC (Saccharomyces cerevisiae), values first:

| MIC (Aspergillus niger) [µg/mL] | MIC (Staphylococcus aureus) [µg/mL] | MIC (Escherichia coli) [µg/mL] | MIC (Pseudomonas aeruginosa) [µg/mL] | MIC (Saccharomyces cerevisiae) [µg/mL] | MIC (Bacillus subtilis) [µg/mL] | MIC (Rhizopus arrhizus) [µg/mL] | MIC (Candida albicans) [µg/mL] | SMILES | Activity (Staphylococcus aureus) | Activity (Escherichia coli) | Activity (Pseudomonas aeruginosa) | Activity (Bacillus subtilis) |
| --- | --- | --- | --- | --- | --- | --- | --- | --- | --- | --- | --- | --- |
|  |  |  |  | 900 (≈ 3330 µM) |  | 800 (≈ 2960 µM) |  | N#CCn1c(C(F)(F)F)nc2ccc([N+](=O)[O-])cc21 |  |  |  |  |
| 800 (≈ 2180 µM) | 800 (≈ 2180 µM) |  |  | 900 (≈ 2450 µM) |  |  | 900 (≈ 2450 µM) | CCOC(=O)Cn1c(C(F)(F)C(F)(F)F)nc2ccc([N+](=O)[O-])cc21 | Dose-dependent effect | Dose-dependent effect | Dose-dependent effect | Dose-dependent effect |
| 700 (≈ 1880 µM) |  |  |  | 750 (≈ 2020 µM) |  | 800 (≈ 2150 µM) | 800 (≈ 2150 µM) | O=[N+]([O-])c1ccc2nc(C(F)(F)C(F)(F)F)n(CCCCCl)c2c1 |  |  |  |  |
| 650 (≈ 2410 µM) |  |  |  | 700 (≈ 2600 µM) |  | 700 (≈ 2600 µM) | 600 (≈ 2230 µM) | C#CCn1c(C(F)(F)F)nc2ccc([N+](=O)[O-])cc21 |  |  |  |  |
| 350 (≈ 1140 µM) | 350 (≈ 1140 µM) | 400 (≈ 1300 µM) | 450 (≈ 1460 µM) | 500 (≈ 1630 µM) | 300 (≈ 975 µM) | 300 (≈ 975 µM) | 400 (≈ 1300 µM) | O=[N+]([O-])c1ccc2nc(C(F)(F)F)n(CCCCl)c2c1 | Dose-dependent effect | Dose-dependent effect | Dose-dependent effect | Dose-dependent effect |
| 300 (≈ 975 µM) | 300 (≈ 975 µM) | 200 (≈ 650 µM) | 400 (≈ 1300 µM) | 400 (≈ 1300 µM) | 350 (≈ 1140 µM) | 200 (≈ 650 µM) | 300 (≈ 975 µM) | O=[N+]([O-])c1ccc2c(c1)nc(C(F)(F)F)n2CCCCl | Dose-dependent effect | Dose-dependent effect | Dose-dependent effect | Dose-dependent effect |
